Test results reported in patent publication US20070078263A1, “BIARYL SUBSTITUTED HETEROCYCLE INHIBITORS OF LTA4H FOR TREATING INFLAMMATION” (deCODE Chemistry, Inc., priority 2005, published 2007).
Where a name gives a salt, the structure may show the parent alone. Read-outs that look alike come from different tables or passages of the source.

Target: T1, human LTA4 hydrolase (Homo sapiens, UniProt P09960)
T1 construct: A human LTA4 hydrolase full-length cDNA clone (NM 000895) was purchased; His tag (6xHis of vector pDEST17); made in house; host or cells: Escherichia coli BL21-AI
T1 sequence (P09960 1-611): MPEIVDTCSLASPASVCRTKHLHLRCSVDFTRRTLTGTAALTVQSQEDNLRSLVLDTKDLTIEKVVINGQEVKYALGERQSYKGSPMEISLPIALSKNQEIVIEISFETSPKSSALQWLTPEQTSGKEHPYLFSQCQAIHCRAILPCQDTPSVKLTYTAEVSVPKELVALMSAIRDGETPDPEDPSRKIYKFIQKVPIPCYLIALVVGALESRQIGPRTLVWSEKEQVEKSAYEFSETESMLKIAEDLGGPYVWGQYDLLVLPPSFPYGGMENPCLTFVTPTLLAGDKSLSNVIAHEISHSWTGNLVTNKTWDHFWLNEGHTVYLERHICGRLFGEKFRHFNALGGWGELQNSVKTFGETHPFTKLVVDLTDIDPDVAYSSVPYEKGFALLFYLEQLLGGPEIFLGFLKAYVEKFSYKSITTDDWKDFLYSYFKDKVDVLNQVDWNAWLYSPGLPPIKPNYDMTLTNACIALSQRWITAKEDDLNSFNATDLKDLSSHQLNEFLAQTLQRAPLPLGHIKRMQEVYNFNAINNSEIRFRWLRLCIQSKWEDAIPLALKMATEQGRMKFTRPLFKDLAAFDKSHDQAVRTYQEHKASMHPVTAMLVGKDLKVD
Test: In vitro assay testing inhibitory activity against purified recombinant human LTA4 hydrolase (LTB4 formed, LC-MS/MS);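 also: 200 nM enzyme preincubated 10 min at room temperature with serial inhibitor dilutions in pH 8.0 Tris buffer with BSA and 10% DMSO, then 2 µM LTA4 added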
Assay type: biochemical

[1] = recombinant human LTA4 hydrolase 200 nM, LTA4 2 μM, read-out: AvgIC50

From the text: (1) In vitro assay testing inhibitory activity against purified recombinant human LTA4 hydroase. […] The gene was amplified by polymerase chain reaction and transferred via pDONR201 into the bacterial expression vector pDEST17 by recombination (both plasmids from Invitrogen, Carlsbad, Calif.). The resulting construct was transformed into Escherichia coli BL21-AI (Invitrogen), and expression was induced by chemical induction with arabinose. The recombinant enzyme was purified by chromatography on an FPLC system (Amersham Biosciences, Uppsala, Sweden) using immobilized metal affinity chromatography (Ni-NTA Superflow, Qiagen, Hilden, Germany) and anion exchange chromatography (MonoQ HR 10/10, Amersham Biosciences).
The compounds of the invention were incubated in a series of dilutions with 200 nM of recombinant enzyme in assay buffer (100 mM Tris-HCl, 100 mM NaCl, 5 mg/ml fatty-acid free BSA, 10% DMSO, pH 8.0) for 10 min at room temperature to allow binding between LTA4 hydrolase and the inhibitors. LTA4 was prepared by alkaline hydrolysis of LTA4 methyl ester (Biomol, Plymouth Meeting, Pa., or Cayman Chemicals, Ann Arbor, Mich.). A solution of 10 μg of the ester was dried under a nitrogen stream and redissolved in 60 μl of a solution of 80% acetone and 20% 0.25 M NaOH. After incubation for 40 min at room temperature the resulting approximately 500 μM tock of LTA4 was kept at −80° C. for no more than a few days prior to use.
Immediately before the assay, LTA4 was diluted to a concentration of 10 μM in assay buffer (without DMSO) and added to the reaction mixture to a final concentration of 2 μM to initiate the enzyme reaction. […] The samples were then kept at 4° C. overnight to complete protein precipitation and centrifuged for 15 min at 1800 g.

Compound | IC50 [1] [µM] | IC50 [µM]
c1ccc(Cc2ccc(OCCC3CCCCN3)cc2)cc1 (racemic) [Example 72, (+/−)-2-[(4-Benzylphenoxy)ethyl]-piperidine hydrochloride] | < 5 | 
Clc1ccc(Cc2ccc(OCC3CCCCN3)cc2)cc1 (stereo in doubt) [Example 165, (S)-2-[4-(4-Chlorobenzyl)-phenoxymethyl]-piperidine hydrochloride] | < 5 | 
Clc1ccc(Cc2ccc(OCC3CCCCN3)cc2)cc1 (stereo in doubt) [Example 166, (R)-2-[4-(4-Chlorobenzyl)-phenoxymethyl]-piperidine hydrochloride] | < 5 | 
c1ccc(Cc2ccc(OC[C@H]3CCCN3Cc3ccncc3)cc2)cc1 [Example 6, 4-[(R)-2-(4-benzyl-phenoxymethyl)-pyrrolidin-1-ylmethyl]-pyridine] | < 5 | 
COC(=O)CCN1CCC[C@@H]1COc1ccc(Cc2ccccc2)cc1 [Example 7, 3-[(R)-2-(4-benzyl-phenoxymethyl)-pyrrolidin-1-yl]-propionic acid methyl ester] | < 5 | 
FC(F)(F)Oc1ccc(Oc2ccc(OC[C@H]3CCCN3)cc2)cc1 [Example 11, (R)-2-[4-(4-Trifluoromethoxy-phenoxy)-phenoxymethyl]-pyrrolidine hydrochloride] | < 5 | 
c1ccc(-c2ccc(Oc3ccc(OC[C@H]4CCCN4)cc3)cc2)cc1 [Example 12, (R)-2-[4-(Biphenyl-4-yloxy)-phenoxymethyl]-pyrrolidine hydrochloride] | < 5 | 
Cc1ccc(Oc2ccc(OC[C@H]3CCCN3)cc2)cc1 [Example 14, (R)-2-(4-p-Tolyloxy-phenoxymethyl)-pyrrolidine hydrochloride] | < 5 | 
N#Cc1ccc(Oc2ccc(OC[C@H]3CCCN3)cc2)cc1 [Example 15, 4-[4-((R)-1-Pyrrolidin-2-ylmethoxy)-phenoxy]-benzonitrile hydrochloride] | < 5 | 
CC(=O)c1ccc(Oc2ccc(OC[C@H]3CCCN3)cc2)cc1 [Example 17, 1-{4-[4-((R)-1-Pyrrolidin-2-ylmethoxy)-phenoxy]-phenyl}-ethanone hydrochloride] | < 5 | 
O=C(O)CN1CCC[C@@H]1COc1ccc(Oc2ccc(Cl)cc2)cc1 [Example 18, {(R)-2-[4-(4-Chloro-phenoxy)-phenoxymethyl]-pyrrolidin-1-yl}-acetic acid hydrochloride] | < 5 | 
FC(F)(F)c1ccc(Oc2ccc(OC[C@@H]3CCCN3)cc2)cc1 [Example 24, (S)-2-[4-(4-trifluoromethyl-phenoxy)-phenoxymethyl]-pyrrolidine] | < 5 | 
O=C(O)CCCN1CCC[C@H]1COc1ccc(Oc2ccc(C(F)(F)F)cc2)cc1 [Example 25] | < 5 | 
O=C(O)CCN1CCC[C@H]1COc1ccc(Oc2ccc(C(F)(F)F)cc2)cc1 [Example 26, (S)-2-[4-(4-trifluoromethyl-phenoxy)-phenoxymethyl]-pyrrolidine-1-yl}propionic acid sodium salt] | < 5 | 
O=C(O)CN1CCC[C@@H]1COc1ccc(Oc2ccc(C(F)(F)F)cc2)cc1 [Example 28, (R)-2-[4-(4-trifluoromethyl-phenoxy)-phenoxymethyl]-pyrrolidine-1-yl)acetic acid sodium salt] | < 5 | 
O=C(O)CCN1CCC[C@@H]1COc1ccc(Oc2ccc(C(F)(F)F)cc2)cc1 [Example 29, (R)-2-[4-(4-trifluoromethyl-phenoxy)-phenoxymethyl]-pyrrolidine-1-yl}propionic acid sodium salt] | < 5 | 
Cc1noc(CCCN2CCC[C@@H]2COc2ccc(Cc3ccccc3)cc2)n1 [Example 31] | < 5 | 
Cc1noc(CCCN2CCC[C@H]2COc2ccc(Cc3ccccc3)cc2)n1 [Example 32] | < 5 | 
OCCCCN1CCC[C@H]1COc1ccc(Cc2ccccc2)cc1 [Example 33, 4-[(S)-2-(4-Benzyl-phenoxymethyl)-pyrrolidin-1-yl]-butan-1-ol] | < 5 | 
O=C(O)CCN1CCC[C@H]1COc1ccc(Cc2ccccc2)cc1 [Example 34, 3-[(S)-2-(4-Benzyl-phenoxymethyl)-pyrrolidin-1-yl]-propionic acid HCl salt] | 5 to 20 | 
O=C(O)CN1CCC[C@H]1COc1ccc(Cc2ccccc2)cc1 [Example 36, [(S)-2-(4-Benzyl-phenoxymethyl)-pyrrolidin-1-yl]-acetic acid TFA salt] | < 5 | 
CC(=O)NCCCN1CCC[C@H]1COc1ccc(Oc2ccc(Cl)cc2)cc1 [Example 38, N-(3-{(S)-2-[4-(4-Chloro-phenoxy)-phenoxymethyl]-pyrrolidin-1-yl}-propyl)-acetamide HCl] | < 5 | 
c1ccc(Cc2ccc(NC[C@H]3CCCN3)cc2)cc1 [Example 41, (4-Benzyl-phenyl)-(R)-1-pyrrolidin-2-ylmethyl-anine] | < 5 | 

Compound | IC50 [1] [µM] | IC50 [µM]
c1ccc(Oc2ccc(SC[C@H]3CCCN3)cc2)cc1 [Example 43, (R)-2-(4-Phenoxy-phenylsulfanylmethyl)-pyrrolidine] | < 5 | 
c1ccc(Nc2ccc(OC[C@H]3CCCN3)cc2)cc1 [Example 44, Phenyl-[4-((R)-1-pyrrolidin-2-ylmethoxy)-phenyl]-amine] | < 5 | 
c1ccc(Oc2ccc(OC[C@H]3CCCN3)cc2)cc1 [Example 45, (R)-2-(4-Phenoxy-phenoxymethyl)-pyrrolidine] | < 5 | 
O=C(c1ccccc1)c1ccc(OC[C@H]2CCCN2)cc1 [Example 46, Phenyl-[4-((R)-1-pyrrolidin-2-ylmethoxy)-phenyl]-methanone] | 5 to 20 | 
O=C(Cc1ccccc1)c1ccc(OC[C@H]2CCCN2)cc1 [Example 47, 2-Phenyl-1-[4-((R)-1-pyrrolidin-2-ylmethoxy)-phenyl]-ethanone] | 5 to 20 | 
c1ccc(CNc2ccc(OC[C@H]3CCCN3)cc2)cc1 [Example 48, Benzyl-[4-((R)-1-pyrrolidin-2-ylmethoxy)-phenyl]-amine] |  | < 5
COC(=O)CCN1CCCC[C@H]1COc1ccc(Oc2ccc(Cl)cc2)cc1 [Example 58, 3-{(S)-2-[4-(4-Chloro-phenoxy)-phenoxymethyl]-piperidin-1-yl}-propionic acid methyl ester] | < 5 | 
O=C(O)CCN1CCCC[C@H]1COc1ccc(Oc2ccc(Cl)cc2)cc1 [Example 59, 3-{(S)-2-[4-(4-Chloro-phenoxy)-phenoxymethyl]-piperidin-1-yl}-propionic acid hydrochloride] | < 5 | 
O=C(O)CN1CCCC[C@H]1COc1ccc(Oc2ccc(Cl)cc2)cc1 [Example 62, {(S)-2-[4-(4-Chloro-phenoxy)-phenoxymethyl]-piperidin-1-yl}-acetic acid hydrochloride] | < 5 | 
Clc1ccc(Oc2ccc(OC[C@@H]3CCCCN3Cc3ncno3)cc2)cc1 [Example 63, (S)-2-[4-(4-Chloro-phenoxy)-phenoxymethyl]-1-[1,2,4]oxadiazol-5-ylmethyl-piperidine hydrochloride] | < 5 | 
O=C(O)CCCN1CCC[C@@H]1COc1ccc(Cc2ccc(Cl)cc2)cc1 [Example 65, 4-{(R)-2-[4-(4-Chloro-benzyl)-phenoxymethyl]-pyrrolidin-1-yl}-butyric acid] | < 5 | 
c1ccc(Cc2ccc(OCC[C@@H]3CCCCN3)cc2)cc1 [Example 71, (S)-2-[(4-Benzylphenoxy)ethyl]-piperidine hydrochloride] | < 5 | 
c1ccc(CN2CCNC(COc3ccc(Oc4ccccc4)cc3)C2)cc1 (stereo not drawn) [Example 75, dihydrochloride] | < 5 | 
c1ccc(Oc2ccc(OCC3CNCCN3)cc2)cc1 (stereo not drawn) [Example 76, dihydrochloride] | < 5 | 
c1cc(-c2ccc(Cc3ccc(OC[C@H]4CCCCN4)cc3)cc2)cs1 [Example 78, (R)-2-[4-(4-Thiophen-3-yl-benzyl)-phenoxymethyl]-piperidine hydrochloride] | < 5 | 
O=C(O)CCCN1CCCC[C@@H]1COc1ccc(Oc2ccc(Cl)cc2)cc1 [Example 81, 4-{(R)-2-[4-(4-Chloro-phenoxy)-phenoxymethyl]-piperidin-1-yl}-butyric acid hydrochloride] |  | < 5
O=C1CC[C@@H](COc2ccc(Cc3ccccc3)cc2)N1 [Example 83, (S) 5-(4-Benzyl-phenoxymethyl)-pyrrolidin-2-one hydrochloride salt] | < 5 | 
O=C1CC[C@H](COc2ccc(Cc3ccccc3)cc2)N1 [Example 84, (R) 5-(4-Benzyl-phenoxymethyl)-pyrrolidin-2-one] | < 5 | 
c1ccc(CO[C@H]2CN[C@H](COc3ccc(Oc4ccccc4)cc3)C2)cc1 [Example 85] | 5 to 20 | 
O[C@H]1CN[C@H](COc2ccc(Oc3ccccc3)cc2)C1 [Example 86, (3R,5S)-5-(4-Phenoxy-phenoxymethyl)-pyrrolidin-3-ol] | < 5 | 
c1ncc(-c2ccc(Oc3ccc(OC[C@@H]4CCCN4)cc3)cc2)o1 [Example 89, 5-{4-[4-((S)-1-Pyrrolidin-2-ylmethoxy)-phenoxy]-phenyl}-oxazole] | < 5 | 
Clc1ccc(COc2ccc(OC[C@H]3CCCN3)cc2)c(Cl)c1 [Example 91, (R)-2-[4-(2,4-Dichloro-benzyloxy)-phenoxymethyl]-pyrrolidine hydrogen chloride salt] | 5 to 20 | 
